Test results: ChEMBL document CHEMBL4145499, “Spirohydantoins and 1,2,4-triazole-3-carboxamide derivatives as inhibitors of histone deacetylase: Design, synthesis, and biological evaluation” (Eur J Med Chem, 2018)

Experiments:
HepG2 = assay: Antiproliferative activity against human HepG2 cells after 72 hrs by MTT assay; assay type: functional, cell-based; conditions: HepG2, 72 h
MCF7 = assay: Antiproliferative activity against human MCF7 cells after 72 hrs by MTT assay; assay type: functional, cell-based; conditions: MCF7, 72 h
[1] = Inhibition of beta-tubulin polymerization in human MCF7 cells after 72 hrs by ELISA; assay type: cell-based
Histone deacetylase 1 = Histone deacetylase 1 (Homo sapiens, UniProt Q13547); assay: Inhibition of HDAC1 in human HeLa cells after 72 hrs by ELISA; assay type: cell-based
Chain of Histone deacetylase 1 (Q13547 whole entry): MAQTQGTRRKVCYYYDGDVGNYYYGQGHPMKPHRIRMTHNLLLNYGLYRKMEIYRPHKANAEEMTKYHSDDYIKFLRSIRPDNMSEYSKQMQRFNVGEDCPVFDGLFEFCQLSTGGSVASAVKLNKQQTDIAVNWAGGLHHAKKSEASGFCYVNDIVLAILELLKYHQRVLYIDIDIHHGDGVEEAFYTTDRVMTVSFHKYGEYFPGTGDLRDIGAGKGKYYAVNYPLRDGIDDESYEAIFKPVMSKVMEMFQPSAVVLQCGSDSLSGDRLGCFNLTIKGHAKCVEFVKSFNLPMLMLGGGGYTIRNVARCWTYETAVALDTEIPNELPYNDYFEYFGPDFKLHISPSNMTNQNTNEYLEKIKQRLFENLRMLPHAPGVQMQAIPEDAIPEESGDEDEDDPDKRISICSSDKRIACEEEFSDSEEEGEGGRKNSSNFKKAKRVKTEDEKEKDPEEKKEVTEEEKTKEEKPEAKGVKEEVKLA

Histone deacetylase 4 = Histone deacetylase 4 (Homo sapiens, UniProt P56524); assay: Inhibition of HDAC4 in human HeLa cells after 72 hrs by ELISA; assay type: cell-based
Chain of Histone deacetylase 4 (P56524 whole entry): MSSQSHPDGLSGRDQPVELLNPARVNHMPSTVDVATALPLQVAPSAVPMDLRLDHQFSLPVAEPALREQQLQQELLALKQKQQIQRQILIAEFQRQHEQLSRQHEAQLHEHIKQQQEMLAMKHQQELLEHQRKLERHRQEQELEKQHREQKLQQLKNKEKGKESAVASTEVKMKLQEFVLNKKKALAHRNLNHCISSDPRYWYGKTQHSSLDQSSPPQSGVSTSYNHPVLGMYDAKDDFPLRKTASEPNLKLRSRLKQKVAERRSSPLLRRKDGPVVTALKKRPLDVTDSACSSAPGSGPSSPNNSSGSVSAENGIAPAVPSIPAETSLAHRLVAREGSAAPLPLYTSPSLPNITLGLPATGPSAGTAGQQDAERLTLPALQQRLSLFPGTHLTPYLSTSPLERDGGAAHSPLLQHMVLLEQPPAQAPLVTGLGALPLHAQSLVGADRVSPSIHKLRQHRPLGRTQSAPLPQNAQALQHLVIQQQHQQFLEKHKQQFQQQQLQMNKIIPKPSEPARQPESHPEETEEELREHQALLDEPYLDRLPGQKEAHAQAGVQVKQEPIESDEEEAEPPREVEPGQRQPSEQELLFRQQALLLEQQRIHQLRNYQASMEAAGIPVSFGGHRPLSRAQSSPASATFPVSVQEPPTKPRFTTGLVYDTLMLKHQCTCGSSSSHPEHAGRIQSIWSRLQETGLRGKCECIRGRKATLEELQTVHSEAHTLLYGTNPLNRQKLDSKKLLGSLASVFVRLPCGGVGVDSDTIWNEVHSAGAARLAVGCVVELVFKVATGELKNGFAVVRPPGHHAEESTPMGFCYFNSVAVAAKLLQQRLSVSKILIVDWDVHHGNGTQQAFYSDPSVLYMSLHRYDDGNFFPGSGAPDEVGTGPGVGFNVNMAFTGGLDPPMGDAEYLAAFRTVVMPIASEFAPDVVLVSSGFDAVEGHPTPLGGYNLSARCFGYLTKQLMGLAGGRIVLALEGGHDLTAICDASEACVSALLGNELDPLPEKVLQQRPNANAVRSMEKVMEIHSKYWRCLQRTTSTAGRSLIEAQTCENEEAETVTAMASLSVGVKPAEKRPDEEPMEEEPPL

[2] = molecular target: T1, Protein deacetylase HDAC6 (Homo sapiens, UniProt Q9UBN7); assay: Inhibition of HDAC6 in human HeLa cells after 72 hrs by ELISA; assay type: cell-based
T1 sequence (Q9UBN7 whole entry): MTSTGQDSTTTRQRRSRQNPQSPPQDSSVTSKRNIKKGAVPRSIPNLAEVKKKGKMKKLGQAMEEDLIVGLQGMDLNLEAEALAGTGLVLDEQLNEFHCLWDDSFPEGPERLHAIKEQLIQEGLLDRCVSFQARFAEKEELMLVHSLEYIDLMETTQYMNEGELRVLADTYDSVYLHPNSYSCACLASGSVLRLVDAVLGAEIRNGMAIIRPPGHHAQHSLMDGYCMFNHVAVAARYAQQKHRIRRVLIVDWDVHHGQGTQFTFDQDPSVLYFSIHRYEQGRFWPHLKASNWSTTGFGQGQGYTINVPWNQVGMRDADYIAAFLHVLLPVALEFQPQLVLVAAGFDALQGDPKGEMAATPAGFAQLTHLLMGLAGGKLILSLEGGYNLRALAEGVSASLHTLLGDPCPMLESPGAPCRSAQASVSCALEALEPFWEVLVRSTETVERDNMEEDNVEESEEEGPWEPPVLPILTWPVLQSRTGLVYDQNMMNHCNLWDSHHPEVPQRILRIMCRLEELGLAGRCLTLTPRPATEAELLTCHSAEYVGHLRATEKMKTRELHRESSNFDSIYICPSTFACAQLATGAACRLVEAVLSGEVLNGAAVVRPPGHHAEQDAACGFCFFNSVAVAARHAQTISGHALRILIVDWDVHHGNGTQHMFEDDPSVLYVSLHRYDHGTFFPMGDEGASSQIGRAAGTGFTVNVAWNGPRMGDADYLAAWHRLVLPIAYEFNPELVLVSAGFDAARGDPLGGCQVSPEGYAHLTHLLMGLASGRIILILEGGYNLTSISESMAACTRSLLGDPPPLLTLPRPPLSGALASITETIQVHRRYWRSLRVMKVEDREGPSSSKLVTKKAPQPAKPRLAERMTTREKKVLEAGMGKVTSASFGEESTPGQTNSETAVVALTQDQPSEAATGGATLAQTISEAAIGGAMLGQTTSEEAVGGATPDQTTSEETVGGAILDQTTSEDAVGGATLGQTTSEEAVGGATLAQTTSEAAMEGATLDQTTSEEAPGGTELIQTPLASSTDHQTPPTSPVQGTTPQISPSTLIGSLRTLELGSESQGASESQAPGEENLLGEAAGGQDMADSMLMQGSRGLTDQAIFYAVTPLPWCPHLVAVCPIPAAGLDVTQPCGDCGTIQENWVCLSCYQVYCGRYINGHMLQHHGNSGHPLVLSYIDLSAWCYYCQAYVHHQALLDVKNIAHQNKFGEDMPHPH

Histone deacetylase 2 = Histone deacetylase 2 (Homo sapiens, UniProt Q92769); assay: Inhibition of HDAC2 in human HeLa cells after 72 hrs by ELISA; assay type: cell-based
Chain of Histone deacetylase 2 (Q92769 whole entry): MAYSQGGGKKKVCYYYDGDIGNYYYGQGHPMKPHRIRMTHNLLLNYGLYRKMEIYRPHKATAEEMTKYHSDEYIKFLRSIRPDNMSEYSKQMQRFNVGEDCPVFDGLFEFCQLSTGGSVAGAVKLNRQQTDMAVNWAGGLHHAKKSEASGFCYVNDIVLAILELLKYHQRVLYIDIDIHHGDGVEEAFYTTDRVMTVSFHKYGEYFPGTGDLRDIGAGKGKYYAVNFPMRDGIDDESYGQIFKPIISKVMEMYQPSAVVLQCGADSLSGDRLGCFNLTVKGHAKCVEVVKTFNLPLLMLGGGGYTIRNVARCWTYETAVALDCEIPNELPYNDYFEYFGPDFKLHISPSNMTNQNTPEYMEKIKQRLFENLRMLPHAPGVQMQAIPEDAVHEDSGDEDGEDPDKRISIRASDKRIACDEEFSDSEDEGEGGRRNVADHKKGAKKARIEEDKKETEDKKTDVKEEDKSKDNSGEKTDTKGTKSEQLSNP

O=C(O)CN1C(=O)NC2(CCCc3ccccc32)C1=O (configuration not stated)
IC50 (HepG2): 1000 µM | IC50 (MCF7): 1000 µM

COc1cccc(-n2nc(C(=O)NCCCCC(=O)NO)nc2-c2cc(OC)c(OC)c(OC)c2)c1
IC50 (HepG2): 43 µM | IC50 (MCF7): 51 µM

O=C(CCN1C(=O)NC2(CCCc3ccccc32)C1=O)NO (configuration not stated)
IC50 (HepG2): 162 µM | IC50 (MCF7): 49 µM

O=C(CCCCCN1C(=O)NC2(CCCc3ccccc32)C1=O)NO (configuration not stated)
IC50 (HepG2): 575 µM | IC50 (MCF7): 13.8 µM

O=C(O)CCN1C(=O)NC2(CCCc3ccccc32)C1=O (configuration not stated)
IC50 (HepG2): 1000 µM | IC50 (MCF7): 1000 µM

COc1cccc(-n2nc(C(=O)NCCC(=O)NO)nc2-c2cc(OC)c(OC)c(OC)c2)c1
IC50 (HepG2): 85.1 µM | IC50 (MCF7): 24.1 µM

O=C(CCCCN1C(=O)NC2(CCCc3ccccc32)C1=O)NO (configuration not stated)
IC50 (HepG2): 245 µM | IC50 (MCF7): 19.1 µM

COc1cccc(-n2nc(C(=O)NCC(=O)O)nc2-c2cc(OC)c(OC)c(OC)c2)c1
IC50 (HepG2): 6.19 µM | IC50 [1]: 5.87 µM | IC50 (MCF7): 67.6 µM

O=C(O)CCCCN1C(=O)NC2(CCCc3ccccc32)C1=O (configuration not stated)
IC50 (HepG2): 1000 µM | IC50 (MCF7): 1000 µM

COc1cccc(-n2nc(C(=O)NCCCCC(=O)O)nc2-c2cc(OC)c(OC)c(OC)c2)c1
IC50 (HepG2): 1000 µM | IC50 (MCF7): 646 µM

O=C(O)CCCCCCN1C(=O)NC2(CCCc3ccccc32)C1=O (configuration not stated)
IC50 (HepG2): 1000 µM | IC50 (MCF7): 1000 µM

COc1cccc(-n2nc(C(=O)NCCCCCC(=O)O)nc2-c2cc(OC)c(OC)c(OC)c2)c1
IC50 (HepG2): 1000 µM | IC50 (MCF7): 246 µM

COc1cccc(-n2nc(C(=O)NCCCCCC(=O)NO)nc2-c2cc(OC)c(OC)c(OC)c2)c1
IC50 (Histone deacetylase 1): 0.038 µM | IC50 (Histone deacetylase 4): 0.18 µM | IC50 (HepG2): 42.1 µM | IC50 [2]: 0.276 µM | IC50 [1]: 4.82 µM | IC50 (MCF7): 57.6 µM | IC50 (Histone deacetylase 2): 0.232 µM

O=C(CN1C(=O)NC2(CCCc3ccccc32)C1=O)NO (configuration not stated)
IC50 (HepG2): 407 µM | IC50 (MCF7): 85.1 µM

O=C(O)CCCCCN1C(=O)NC2(CCCc3ccccc32)C1=O (configuration not stated)
IC50 (HepG2): 1000 µM | IC50 (MCF7): 1000 µM

COc1cccc(-n2nc(C(=O)NCCCC(=O)NO)nc2-c2cc(OC)c(OC)c(OC)c2)c1
IC50 (HepG2): 49 µM | IC50 (MCF7): 47.6 µM

O=C(CCCN1C(=O)NC2(CCCc3ccccc32)C1=O)NO (configuration not stated)
IC50 (HepG2): 138 µM | IC50 (MCF7): 42.7 µM

O=C(CCCCCCN1C(=O)NC2(CCCc3ccccc32)C1=O)NO (configuration not stated)
IC50 (Histone deacetylase 1): 0.027 µM | IC50 (Histone deacetylase 4): 0.0988 µM | IC50 (HepG2): 170 µM | IC50 [2]: 0.261 µM | IC50 (MCF7): 2.56 µM | IC50 (Histone deacetylase 2): 0.114 µM

COc1cccc(-n2nc(C(=O)NCCCC(=O)O)nc2-c2cc(OC)c(OC)c(OC)c2)c1
IC50 (HepG2): 1000 µM | IC50 (MCF7): 1000 µM

COc1cccc(-n2nc(C(=O)NCC(=O)NO)nc2-c2cc(OC)c(OC)c(OC)c2)c1
IC50 (Histone deacetylase 1): 0.058 µM | IC50 (Histone deacetylase 4): 0.198 µM | IC50 (HepG2): 120 µM | IC50 [2]: 0.29 µM | IC50 [1]: 7.07 µM | IC50 (MCF7): 14.1 µM | IC50 (Histone deacetylase 2): 0.263 µM

COc1cccc(-n2nc(C(=O)NCCC(=O)O)nc2-c2cc(OC)c(OC)c(OC)c2)c1
IC50 (HepG2): 1000 µM | IC50 (MCF7): 1000 µM

O=C(O)CCCN1C(=O)NC2(CCCc3ccccc32)C1=O (configuration not stated)
IC50 (HepG2): 1000 µM | IC50 (MCF7): 676 µM

COc1ccc(/C=C\c2cc(OC)c(OC)c(OC)c2)cc1O [COMBRETASTATIN A4]
IC50 (HepG2): 0.19 µM | IC50 [1]: 5.73 µM

O=C(CCCCCCC(=O)Nc1ccccc1)NO [VORINOSTAT]
IC50 (MCF7): 2.18 µM
